Patent EP4741390A1, “BIARYL RING COMPOUND, INTERMEDIATE THEREOF, PREPARATION METHOD THEREFOR AND USE THEREOF” (Hangzhou Synrx Therapeutics Biomedical Technology Co., Ltd., priority 2023, dated 2025)
Where two headings read alike, the source gives them in different places.

Legend:
[1] = molecular target: helicase domain of the Pol θ protein (Homo sapiens, UniProt O75417); type: biochemical
Description: Biochemical Activity Assay (ADP Glo Assay) of Pol θ Inhibitor
The specific assay method was as follows: • 1) The helicase domain of the Pol θ protein was purified by an insect system, to obtain the protein with a purity of >90%. ssDNA (5'-[sequence]-3', Hangzhou Yocon Biotechnology Co., Ltd.) was ordered as the substrate for the Pol θ protein; and a reaction buffer containing 10 mM DTT (Dithiothreitol), 20 mM MgCl2 and Tris-HCl pH 7.5 was prepared. • 2) The 2x ssDNA-Pol θ premix was prepared; the reaction was conducted in a 384-well plate; a control group with only buffer is set, and the premix was added to the rest of the groups.

DLD1 BRCA2-/- cells = assay: Cell viability assay (CTG assay), DLD1 BRCA2-/- cells; type: cell-based; settings: Homo sapiens, DLD-1, 240 h; CellTiter Glo, read on Day 10, initial concentration 30 µM
Description: (§1) 2. Cell Viability Assay of Pol θ Inhibitor
(§2) The cell viability assay, i.e., the commonly used CTG assay, was conducted for the efficacy of the inhibitor in vitro using the CellTiter Glo reagent (Promega, G7573).

DLD1 wild type = assay: Cell viability assay (CTG assay), DLD1 wild type cells; type: cell-based; settings: Homo sapiens, DLD-1, 240 h; CellTiter Glo, read on Day 10, initial concentration 30 µM
Description: as §1, §2

[2] = ATPase activity, ADP-Glo, ssDNA substrate, 60 min at room temperature, initial concentration 10 µM, read-out: Biochemical experiment IC50

Chain of helicase domain of the Pol θ protein (O75417 102-554 limits assumed): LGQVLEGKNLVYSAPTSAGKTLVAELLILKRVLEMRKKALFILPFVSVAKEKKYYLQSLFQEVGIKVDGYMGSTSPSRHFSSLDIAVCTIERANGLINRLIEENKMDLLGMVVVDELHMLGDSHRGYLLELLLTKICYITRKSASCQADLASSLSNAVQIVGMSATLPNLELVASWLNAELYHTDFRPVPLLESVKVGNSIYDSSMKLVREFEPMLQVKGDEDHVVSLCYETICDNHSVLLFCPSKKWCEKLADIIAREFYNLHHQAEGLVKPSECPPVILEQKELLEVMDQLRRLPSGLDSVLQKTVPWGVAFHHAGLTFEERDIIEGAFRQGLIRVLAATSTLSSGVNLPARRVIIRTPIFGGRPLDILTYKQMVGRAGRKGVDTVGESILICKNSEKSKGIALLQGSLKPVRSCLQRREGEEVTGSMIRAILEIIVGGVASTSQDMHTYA

Row | IC50 (DLD1 BRCA2-/- cells) [nM] | IC50 (DLD1 wild type) [nM] | IC50 [1, 2] [nM] | Structure (SMILES) | IC50 [1] [nM]
1 | 41.2 | > 50000 | 5.58 | COc1cnc(C(F)F)cc1-c1cc(-n2cccc(F)c2=O)ncc1C(=O)Nc1nc(-c2ccncc2)cs1 [Example 2, 2"-(difluoromethyl)-3-fluoro-5"-methoxy-2-oxo-N-(4-(pyridin-4-yl)thiazol-2-yl)-2H-[1,2':4',4"-terpyridine]-5'-carboxamide] | –
2 | 79.4 | > 50000 | 10.3 | COc1cnc(C(F)F)cc1-c1cc(-n2cccc(F)c2=O)ncc1C(=O)Nc1nc(C2CC2)cs1 [Example 3, N-(4-cyclopropylthiazol-2-yl)-2"-(difluoromethyl)-3-fluoro-5"-methoxy-2-oxo-2H-[1,2':4',4"-terpyridine]-5'-carboxamide] | –
3 | 43 | > 50000 | 20.9 | COc1cnc(C(F)F)cc1-c1cc(-n2cccc(F)c2=O)ncc1C(=O)Nc1nccs1 [Example 4, 2"-(difluoromethyl)-3-fluoro-5"-methoxy-2-oxo-N-(thiazol-2-yl)-2H-[1,2':4',4"-terpyridine]-5'-carboxamide] | –
4 | – | > 50000 | 132 | COc1cnc(Cl)cc1-c1cc(C)ncc1C(=O)Nc1nc(C2CC2)ns1 [Example 5, 2'-chloro-N-(3-cyclopropyl-1,2,4-thiadiazol-5-yl)-5'-methoxy-6-methyl-[4,4'-bipyridine]-3-carboxamide] | –
5 | 52.1 | > 50000 | 15.2 | COc1cnc(C(F)F)cc1-c1cc(-n2cccc(F)c2=O)ncc1C(=O)Nc1nc(C(C)(C)C)ns1 [Example 6, N-(3-(tert-butyl)-1,2,4-thiadiazol-5-yl)-2"-(difluoromethyl)-3-fluoro-5"-methoxy-2-oxo-2H-[1,2':4',4"-terpyridine]-5'-carboxamide] | –
6 | 56.2 | > 50000 | 4.02 | COc1nsc(NC(=O)c2cnc(-n3cccc(F)c3=O)cc2-c2cc(C(F)F)ncc2OC)n1 [Example 7, 2"-(difluoromethyl)-3-fluoro-5"-methoxy-N-(3-methoxy-1,2,4-thiadiazol-5-yl)-2-oxo-2H-[1,2':4',4"-terpyridine]-5'-carboxamide] | –
7 | 56.2 | 19200 | 8.23 | COc1cnc(C(F)F)cc1-c1cc(-n2cccc(F)c2=O)ncc1C(=O)Nc1nc(-c2ccccn2)ns1 [Example 8, 2"-(difluoromethyl)-3-fluoro-5"-methoxy-2-oxo-N-(3-(pyridin-2-yl)-1,2,4-thiadiazol-5-yl)-2H-[1,2':4',4"-terpyridine]-5'-carboxamide] | –
8 | 32.9 | > 50000 | 13.4 | COc1cnc(C(F)F)cc1-c1cc(-n2cccc(F)c2=O)ncc1C(=O)Nc1nc(-c2ccccc2)ns1 [Example 9, 2"-(difluoromethyl)-3-fluoro-5"-methoxy-2-oxo-N-(3-phenyl-1,2,4-thiadiazol-5-yl)-2H-[1,2':4',4"-terpyridine]-5'-carboxamide] | –
9 | 89.1 | > 50000 | 5.81 | COc1cnc(C(F)F)cc1-c1cc(-n2cccc(F)c2=O)ncc1C(=O)Nc1ncns1 [Example 10, 2"-(difluoromethyl)-3-fluoro-5"-methoxy-2-oxo-N-(1,2,4-thiadiazol-5-yl)-2H-[1,2':4',4''-terpyridine]-5'-carboxamide] | –
10 | 171 | > 50000 | 14 | COc1cnc(C(F)F)cc1-c1cc(-n2cccc(F)c2=O)ncc1C(=O)Nc1nc(C)ns1 [Example 11, 2"-(difluoromethyl)-3-fluoro-5"-methoxy-N-(3-methyl-1,2,4-thiadiazol-5-yl)-2-oxo-2H-[1,2':4',4"-terpyridine]-5'-carboxamide] | –
11 | 25.1 | 23300 | – | COc1cnc(C(F)F)cc1-c1cc(-n2cccc(F)c2=O)ncc1C(=O)Nc1nc(-c2ccc(F)cc2)ns1 [Example 12, 2"-(difluoromethyl)-3-fluoro-N-(3-(4-fluorophenyl)-1,2,4-thiadiazol-5-yl)-5"-methoxy-2-oxo-2H-[1,2':4',4"-terpyridine]-5'-carboxamide] | –
12 | 54.1 | > 50000 | 17.6 | COc1cnc(C(F)F)cc1-c1cc(-n2cccc(F)c2=O)ncc1C(=O)Nc1nc(-c2cccnc2)ns1 [Example 13, 2"-(difluoromethyl)-3-fluoro-5"-methoxy-2-oxo-N-(3-(pyridin-3-yl)-1,2,4-thiadiazol-5-yl)-2H-[1,2':4',4"-terpyridine]-5'-carboxamide] | –
13 | 4.82 | > 50000 | 3.63 | COc1cnc(C(F)F)cc1-c1cc(-n2cccc(F)c2=O)ncc1C(=O)Nc1nc(-c2c(C)cnn2C)ns1 [Example 14, 2"-(difluoromethyl)-N-(3-(1,4-dimethyl-1H-pyrazol-5-yl)-1,2,4-thiadiazol-5-yl)-3-fluoro-5"-methoxy-2-oxo-2H-[1,2':4',4"-terpyridine]-5'-carboxamide] | –
14 | 10.8 | > 5000 | 5.58 | COc1cnc(C(F)F)cc1-c1cc(-n2cccc(F)c2=O)ncc1C(=O)Nc1nc(-c2ccncc2)ns1 [Example 15, 2"-(difluoromethyl)-3-fluoro-5"-methoxy-2-oxo-N-(3-(pyridin-4-yl)-1,2,4-thiadiazol-5-yl)-2H-[1,2':4',4"-terpyridine]-5'-carboxamide] | –
15 | 10 | > 5000 | 9.69 | CCCc1nsc(NC(=O)c2cnc(-n3cccc(F)c3=O)cc2-c2cc(C(F)F)ncc2OC)n1 [Example 16, 2"-(difluoromethyl)-3-fluoro-5"-methoxy-2-oxo-N-(3-propyl-1,2,4-thiadiazol-5-yl)-2H-[1,2':4',4"-terpyridine]-5'-carboxamide] | –
16 | 3.98 | > 5000 | 8.98 | COc1cnc(C(F)F)cc1-c1cc(-n2cccc(F)c2=O)ncc1C(=O)Nc1nc(C(C)C)ns1 [Example 17, 2"-(difluoromethyl)-3-fluoro-N-(3-isopropyl-1,2,4-thiadiazol-5-yl)-5"-methoxy-2-oxo-2H-[1,2':4',4"-terpyridine]-5'-carboxamide] | –
17 | 5.62 | 4300 | 25.1 | COc1cnc(C(F)F)cc1-c1cc(-n2cccc(F)c2=O)ncc1C(=O)Nc1nc(-c2ncccn2)ns1 [Example 18, 2"-(difluoromethyl)-3-fluoro-5"-methoxy-2-oxo-N-(3-(pyrimidin-2-yl)-1,2,4-thiadiazol-5-yl)-2H-[1,2':4',4"-terpyridine]-5'-carboxamide] | –
18 | 56.2 | > 5000 | 32.1 | COc1cnc(C(F)F)cc1-c1cc(-n2cccc(F)c2=O)ncc1C(=O)Nc1nc(-c2cnccn2)ns1 [Example 19, 2"-(difluoromethyl)-3-fluoro-5"-methoxy-2-oxo-N-(3-(pyrazin-2-yl)-1,2,4-thiadiazol-5-yl)-2H-[1,2':4',4"-terpyridine]-5'-carboxamide] | –
19 | 22.4 | > 5000 | 8.31 | COc1cnc(C(F)F)cc1-c1cc(-n2cccc(F)c2=O)ncc1C(=O)Nc1nc(Cl)ns1 [Example 20, N-(3-chloro-1,2,4-thiadiazol-5-yl)-2"-(difluoromethyl)-3-fluoro-5"-methoxy-2-oxo-2H-[1,2':4',4"-terpyridine]-5'-carboxamide] | –
20 | 7.64 | > 5000 | 8.57 | COc1cnc(Cl)cc1-c1cc(-n2cccc(F)c2=O)ncc1C(=O)Nc1nc(C2CC2)ns1 [Example 21, 2"-chloro-N-(3-cyclopropyl-1,2,4-thiadiazol-5-yl)-3-fluoro-5"-methoxy-2-oxo-2H-[1,2':4',4"-terpyridine]-5'-carboxamide] | –
21 | 5.01 | > 5000 | 3.41 | COc1cnc(C(F)F)cc1-c1cc(-n2cccc(F)c2=O)ncc1C(=O)Nc1nc(-c2c(C)noc2C)ns1 [Example 22, 2"-(difluoromethyl)-N-(3-(3,5-dimethylisoxazol-4-yl)-1,2,4-thiadiazol-5-yl)-3-fluoro-5"-methoxy-2-oxo-2H-[1,2':4',4"-terpyridine]-5'-carboxamide] | –
22 | – | > 5000 | 34.1 | COc1cnc(C(F)F)cc1-c1cc(-n2cccc(F)c2=O)ncc1C(=O)Nc1nc(N)ns1 [Example 30, N-(3-amino-1,2,4-thiadiazol-5-yl)-2"-(difluoromethyl)-3-fluoro-5"-methoxy-2-oxo-2H-[1,2':4',4"-terpyridin]-5'-carboxamide] | –
23 | – | > 5000 | 14.4 | COc1cnc(C(F)F)cc1-c1cc(-n2cccc(F)c2=O)ncc1C(=O)Nc1nc(NC(C)=O)ns1 [Example 31, N-(3-acetamino-1,2,4-thiadiazol-5-yl)-2"-(difluoromethyl)-3-fluoro-5"-methoxy-2-oxo-2H-[1,2':4',4"-terpyridin]-5'-carboxamide] | –

Row | Structure (SMILES) | IC50 (DLD1 BRCA2-/- cells) [nM] | IC50 (DLD1 wild type) [nM] | IC50 [1, 2] [nM] | IC50 [1] [nM]
24 | COc1cnc(C(F)F)cc1-c1cc(-n2cccc(F)c2=O)ncc1C(=O)Nc1nc(C2CC2)ns1 [Example 1, N-(3-cyclopropyl-1,2,4-thiadiazol-5-yl)-2"-difluoromethyl-3-fluoro-5"-methoxy-2-oxo-2H-[1,2':4',4"-tripyridin]-5'-carboxamide] | 48.2 | > 50000 | – | 6.92
25 | COc1cnc(C(F)F)cc1-c1cc(-n2cccc(F)c2=O)ncc1C(=O)Nc1nc(N2CC3CC(C2)N3)ns1 [Example 27, N-(3-(3,6-diazabicyclo[3.1.1]heptan-3-yl)-1,2,4-thiadiazol-5-yl)-2"-(difluoromethyl)-3-fluoro-5"-methoxy-2-oxo-2H-[1,2':4',4"-terpyridin]-5'-carboxamide] | – | > 5000 | 158 | –
26 | COc1cnc(C(F)F)cc1-c1cc(-n2cccc(F)c2=O)ncc1C(=O)Nc1nc(N2CC3CC(C2)N3C)ns1 [Example 29, 2"-(difluoromethyl)-3-fluoro-5"-methoxy-N-(3-(6-methyl-3,6-diazabicyclo[3.1.1]heptan-3-yl)-1,2,4-thiadiazol-5-y)-2-oxo-2H-[1,2':4',4"-terpyridin]-5'-carboxamide] | – | > 5000 | – | 244
